From patent publication US8058228B2, “Leptin peptide antagonists” (Boston Biomedical Research Institute, priority 2004, dated 2011)
“Also recorded” adds a separate entry of the source.

Tested on: OB-R
Assay: IL-1R tl expression by rabbit endometrial cells (immunocytochemistry, Western blot)
Format: cell-based
Conditions: for effect on leptin up-regulation of IL-1R tl expression: LPA-2 30 and 120 nM, LPA-2Sc 120 nM, antibody 20 μg/ml
Experimental: Rabbit endometrial cells (5×10^5 cells/well) were cultured for 5-9 days in DMEM-MCDB105 (3:1) medium containing 10% fetal bovine serum (FBS), 5 μg/ml insulin, 1% amphopthericin B, 100 μg/ml streptomycin and 100 U/ml penicillin until confluent layers were obtained. The cells were washed twice with 100 mM phosphate saline buffer (PBS) −2% BSA (w/v), pH 7.2 and cultured for an additional 2 days in the same medium but without FBS (basal medium). This procedure was performed to reduce any effects of cytokines from FBS on the phosphorylation rate of Stat3 as well as the expression of other cytokines and their receptors. Cells were washed as described before and cultured in basal medium containing leptin (0-10 nM), OB-R antibody (1-20 μg/ml) and/or LPA-2 peptides (0-300 nM). Cultures were stopped at 24 h and the cells were used for immunocytochemistry, binding studies and western blot analysis. The conditioned media were collected, lyophilized and stored at −80° C. for ELISA determinations. Duplicate wells were run for each treatment and the experiments repeated at least three times with different cell preparations from different rabbits. Controls were the same cellular preparations cultured in basal medium containing non-specific goat IgGs and LPA-2Sc.
The rabbit endometrial cells were cultured as described above in duplicate on 8-well glass-bottom culture plates (Nalgene Nunc International, Naperville, Ill.) and fixed with methanol at −20° C. for 20 min for immunocytochemical studies. All the antibodies tested were diluted in PBS-2% BSA (w/v; buffer A).
Anti IL-1R tl (1 μg/ml), anti LIF-R (2 μg/ml), anti vimentin (1:50), anti cytokeratin (1:50) and anti p-Stat3 (1 μg/ml) antibodies were used to assess the expression of the respective antigens by rEEC and rESC cultures. After incubation with primary antibodies the cells were incubated with a streptavidin-biotin-alkaline phosphatase system according to the manufacturer directions (Vectastain, ABC-AP kit, Vector Laboratories, Burlingame, Calif.) and counter-stained with hematoxylin (Dako). Negative controls included cell preparations in which the primary antibodies were substituted by irrelevant species matched IgGs.
After culture in the presence of leptin, LPAs or antibodies, the endometrial cells were washed with ice-cold PBS and lysed by homogenization on ice with lysis buffer [[…] Tris, pH 7.4, containing […] NaCl, 2 mM EDTA, 10% glycerol, 50 mM β-glycerophosphate, […] NaF, 1% Nonidet P-40, 2 mM phenyl-methylsulfonyl fluoride, 2 mM sodium orthovanadate, 100 μM antipain, 0.1 mg/ml trypsin inhibitor and protease cocktail inhibitor 1:50 (Sigma)]. […] Protein concentrations were determined using the Bradford protein assay (BioRad Laboratories Inc., Hercules, Calif.). […]

Row | Substance | effect on basal expression of IL-1R tl (rESC, LPA-2 120 nM, Western blot) | effect on leptin up-regulation of IL-1R tl expression (rESC, leptin 3 nM) | IL-1R tl expression after leptin (rabbit endometrial cells, leptin 3 nM)
1 | SRNVIQISNDLENLRDLLHVLAFSKS [LPA-2, 26 amino acid peptide, residues 70-95 of helix III of the human leptin molecule; leptin peptide antagonist] | inhibited the basal expression of IL-1R tl | completely abolished; also recorded: significantly decreased | –
2 | leptin: human recombinant leptin (R&D Systems), OB-R ligand used as stimulus | – | – | substantially up-regulates IL-1R tl expression
3 | VAEVLNRSDLIQRISFSLDLNNSKLH [LPA-2Sc, scrambled version of LPA-2, negative control, reference compound] | – | did not alter the leptin effect on IL-1R tl expression | –
